Assay results reported in the NIST ThermoML archive (doi:10.1021/acs.jced.8b01135).
± gives the expanded uncertainty stated by the source.

Experiment: xn = mol fraction of the nth substance listed
Settings: 102 kPa, Liquid; for speed of sound: Frequency=3 MHz, Single path-length method; for mass density: Vibrating tube method; for viscosity: Concentric cylinders viscometry

CCCCCCCCCCCCC1CCCCC1 [dodecylcyclohexane] + CCCCCCCCCCCC
Settings | mass density [kg/m3] | speed of sound [m/s] | viscosity [mPa·s]
288.15 K, x1 = 0.1005 | 762.18 ± 0.71 | 1333.2 ± 0.8 | –
288.15 K, x1 = 0.2001 | 771.24 ± 0.71 | 1348 ± 0.8 | –
288.15 K, x1 = 0.298 | 779.52 ± 0.71 | 1361.9 ± 0.8 | –
288.15 K, x1 = 0.4031 | 787.8 ± 0.71 | 1375.7 ± 0.9 | –
288.15 K, x1 = 0.5001 | 794.95 ± 0.71 | 1387.9 ± 0.9 | –
288.15 K, x1 = 0.6005 | 801.89 ± 0.71 | 1400 ± 0.9 | –
288.15 K, x1 = 0.7003 | 808.42 ± 0.71 | 1411.3 ± 0.9 | –
288.15 K, x1 = 0.7997 | 814.5 ± 0.71 | 1421.8 ± 0.9 | –
288.15 K, x1 = 0.8994 | 820.23 ± 0.71 | 1432.1 ± 0.9 | –
288.15 K, x1 = 1 | 825.71 ± 0.71 | 1441.5 ± 0.9 | –
293.15 K, x1 = 0.1005 | 758.6 ± 0.71 | 1313.7 ± 0.8 | 1.82 ± 0.06
293.15 K, x1 = 0.2001 | 767.69 ± 0.71 | 1328.7 ± 0.8 | 2.14 ± 0.02
293.15 K, x1 = 0.298 | 776 ± 0.71 | 1342.6 ± 0.8 | 2.53 ± 0.02
293.15 K, x1 = 0.4031 | 784.32 ± 0.71 | 1356.6 ± 0.9 | 3.03 ± 0.03
293.15 K, x1 = 0.5001 | 791.49 ± 0.71 | 1368.9 ± 0.9 | 3.55 ± 0.03
293.15 K, x1 = 0.6005 | 798.47 ± 0.71 | 1381 ± 0.9 | 4.17 ± 0.04
293.15 K, x1 = 0.7003 | 805.01 ± 0.71 | 1392.4 ± 0.9 | 4.9 ± 0.03
293.15 K, x1 = 0.7997 | 811.11 ± 0.71 | 1403.1 ± 0.9 | 5.73 ± 0.03
293.15 K, x1 = 0.8994 | 816.87 ± 0.71 | 1413.3 ± 0.9 | 6.68 ± 0.04
293.15 K, x1 = 1 | 822.36 ± 0.71 | 1422.9 ± 0.9 | 7.76 ± 0.04
298.15 K, x1 = 0.1005 | 755.01 ± 0.71 | 1294.4 ± 0.8 | –
298.15 K, x1 = 0.2001 | 764.14 ± 0.71 | 1309.5 ± 0.8 | –
298.15 K, x1 = 0.298 | 772.48 ± 0.71 | 1323.5 ± 0.8 | –
298.15 K, x1 = 0.4031 | 780.84 ± 0.71 | 1337.6 ± 0.9 | –
298.15 K, x1 = 0.5001 | 788.04 ± 0.71 | 1350 ± 0.9 | –
298.15 K, x1 = 0.6005 | 795.04 ± 0.71 | 1362.1 ± 0.9 | –
298.15 K, x1 = 0.7003 | 801.61 ± 0.71 | 1374 ± 0.9 | –
298.15 K, x1 = 0.7997 | 807.73 ± 0.71 | 1384.7 ± 0.9 | –
298.15 K, x1 = 0.8994 | 813.51 ± 0.71 | 1395.1 ± 0.9 | –
298.15 K, x1 = 1 | 819.02 ± 0.71 | 1404.8 ± 0.9 | –
303.15 K, x1 = 0.1005 | 751.42 ± 0.71 | 1275.3 ± 0.8 | 1.53 ± 0.06
303.15 K, x1 = 0.2001 | 760.58 ± 0.71 | 1290.5 ± 0.8 | 1.75 ± 0.02
303.15 K, x1 = 0.298 | 768.97 ± 0.71 | 1304.6 ± 0.8 | 2.05 ± 0.02
303.15 K, x1 = 0.4031 | 777.36 ± 0.71 | 1318.8 ± 0.9 | 2.43 ± 0.02
303.15 K, x1 = 0.5001 | 784.59 ± 0.71 | 1331.3 ± 0.9 | 2.82 ± 0.02
303.15 K, x1 = 0.6005 | 791.62 ± 0.71 | 1343.5 ± 0.9 | 3.28 ± 0.03
303.15 K, x1 = 0.7003 | 798.2 ± 0.71 | 1355.4 ± 0.9 | 3.79 ± 0.03
303.15 K, x1 = 0.7997 | 804.35 ± 0.71 | 1366.3 ± 0.9 | 4.38 ± 0.03
303.15 K, x1 = 0.8994 | 810.15 ± 0.71 | 1376.6 ± 0.9 | 5.05 ± 0.03
303.15 K, x1 = 1 | 815.68 ± 0.71 | 1386.3 ± 0.9 | 5.81 ± 0.03
313.15 K, x1 = 0.1005 | 744.23 ± 0.71 | 1237.7 ± 0.8 | 1.29 ± 0.07
313.15 K, x1 = 0.2001 | 753.48 ± 0.71 | 1253.1 ± 0.8 | 1.46 ± 0.02
313.15 K, x1 = 0.298 | 761.93 ± 0.71 | 1267.5 ± 0.8 | 1.7 ± 0.02
313.15 K, x1 = 0.4031 | 770.4 ± 0.71 | 1281.9 ± 0.9 | 1.99 ± 0.02
313.15 K, x1 = 0.5001 | 777.69 ± 0.71 | 1294.6 ± 0.9 | 2.28 ± 0.02
313.15 K, x1 = 0.6005 | 784.77 ± 0.71 | 1307 ± 0.9 | 2.63 ± 0.02
313.15 K, x1 = 0.7003 | 791.4 ± 0.71 | 1319.2 ± 0.9 | 3.01 ± 0.03
313.15 K, x1 = 0.7997 | 797.6 ± 0.71 | 1330.2 ± 0.9 | 3.45 ± 0.03
313.15 K, x1 = 0.8994 | 803.45 ± 0.71 | 1340.7 ± 0.9 | 3.93 ± 0.03
313.15 K, x1 = 1 | 809.03 ± 0.71 | 1350.5 ± 0.9 | 4.48 ± 0.03
323.15 K, x1 = 0.1005 | 737.02 ± 0.71 | 1200.9 ± 0.8 | 1.09 ± 0.02
323.15 K, x1 = 0.2001 | 746.35 ± 0.71 | 1216.6 ± 0.8 | 1.27 ± 0.02
323.15 K, x1 = 0.298 | 754.88 ± 0.71 | 1231.1 ± 0.8 | 1.43 ± 0.02
323.15 K, x1 = 0.4031 | 763.43 ± 0.71 | 1245.9 ± 0.9 | 1.66 ± 0.02
323.15 K, x1 = 0.5001 | 770.78 ± 0.71 | 1258.7 ± 0.9 | 1.89 ± 0.02
323.15 K, x1 = 0.6005 | 777.93 ± 0.71 | 1271.3 ± 0.9 | 2.16 ± 0.02
323.15 K, x1 = 0.7003 | 784.61 ± 0.71 | 1283.6 ± 0.9 | 2.45 ± 0.02
323.15 K, x1 = 0.7997 | 790.86 ± 0.71 | 1294.8 ± 0.9 | 2.78 ± 0.02
323.15 K, x1 = 0.8994 | 796.76 ± 0.71 | 1305.4 ± 0.9 | 3.14 ± 0.03
323.15 K, x1 = 1 | 802.38 ± 0.71 | 1315.4 ± 0.9 | 3.55 ± 0.03
333.15 K, x1 = 0.1005 | 729.78 ± 0.71 | 1165.1 ± 0.8 | 0.945 ± 0.021
333.15 K, x1 = 0.2001 | 739.2 ± 0.71 | 1181 ± 0.8 | 1.09 ± 0.02
333.15 K, x1 = 0.298 | 747.81 ± 0.71 | 1195.8 ± 0.8 | 1.22 ± 0.02
333.15 K, x1 = 0.4031 | 756.44 ± 0.71 | 1210.7 ± 0.9 | 1.4 ± 0.02
333.15 K, x1 = 0.5001 | 763.86 ± 0.71 | 1223.8 ± 0.9 | 1.59 ± 0.02
333.15 K, x1 = 0.6005 | 771.08 ± 0.71 | 1236.5 ± 0.9 | 1.8 ± 0.02
333.15 K, x1 = 0.7003 | 777.81 ± 0.71 | 1248.9 ± 0.9 | 2.03 ± 0.02
333.15 K, x1 = 0.7997 | 784.13 ± 0.71 | 1260.3 ± 0.9 | 2.29 ± 0.02
333.15 K, x1 = 0.8994 | 790.08 ± 0.71 | 1271 ± 0.9 | 2.57 ± 0.02
333.15 K, x1 = 1 | 795.75 ± 0.71 | 1281.4 ± 0.9 | 2.88 ± 0.03
